Assay results: article PMC3889466 (Journal of medicinal chemistry, 2013)

Experiments:
[1] = target: T1, A/M2 S31N (Influenza A virus, UniProt P0DOF5, S31N); conditions: conductance assay in M2-expressing oocytes; cited from earlier work
[2] = target: A/M2 V27A (Influenza A virus, UniProt P0DOF5, V27A); conditions: cited from earlier work
[3] = target: T1, A/M2 S31N; type: cell-based, influenza A/Udorn/72; conditions: pH 5.5

## CC12CC3CC1(C)CC3(N)C2 [Compound 6]
[1]
  Activity against the S31N mutant form of A/M2 (in words): inactive
[2]
  Activity against the V27A mutant form of A/M2 (in words): inactive

## CC12CC3CC1(C)CC3(CN)C2 [Compound 7]
[1]
  Activity against the S31N mutant form of A/M2 (in words): inactive
[2]
  Activity against the V27A mutant form of A/M2 (in words): inactive

## NC12C3CCC4C3C3C(CCC31)C42 [Compound 8]
[2]
  Activity against the V27A mutant form of A/M2 (in words): did not show any activity

## NCC12C3CCC4C3C3C(CCC31)C42 [Compound 9]
[2]
  Activity against the V27A mutant form of A/M2 (in words): did not show any activity

## C1=CC2C3C4C5C=CC4C24CNCC54C13 [Compound 10]
[2]
  Activity against the V27A mutant form of A/M2 (in words): marginal activity

## C1C2C1C1C3C4C5C6CC6C4C14CNCC54C23 (stereo not drawn) [Compound 11]
[2]
  Activity against the V27A mutant form of A/M2 (in words): marginal activity

## CC12CC34CNCC3(C1)CC2(C)C4.Cl [Compound 14a, 7,8-Dimethyl-3-azatetracyclo[5.2.1.1^5,8.0^1,5]undecane hydrochloride]
[3]
  A/M2 S31N Inhibition by 100 μM for 2 min (%): 0%
